# According to patent US20180116849A1, “SYSTEMS AND METHODS FOR DETERMINING FAILURE OF INTRAGASTRIC DEVICES” (Obalon Therapeutics, Inc., priority 2015, published 2018):
# Entries after “also recorded” stand apart in the source; their conditions may differ. Structures can show the parent of a compound that is named as a salt.
# Key:
# [1] = Colour, fluorescence or emission of the dye; format: physicochemical; conditions: dyes identified as indicator for balloon rupture
# Method: Experiments were conducted to identify appropriate dyes that may be incorporated into their gastric balloon device to function as an indicator for balloon rupture. The characteristics of the dyes considered for selection included the following: acceptable toxicology profile, acceptable solubility, intensely absorbing (high color intensity), stable in the gastric environment, and stable during excretion so as to be visually identified by the patient or a caregiver.
# [2] = cited from earlier work; for Solubility in water: The Merck Index
# rat = conditions: cited from earlier work
# [3] = The Merck Index; cited from earlier work
# [4] = cited from earlier work; for Side-effect of turning urine a color: drugs that may be a source of false positives for balloon leakage; for Urine color produced: humans / patients exposed to the dye
# [5] = Tables 4 and 5; cited from earlier work
# [6] = Tables 4 and 5; cited from earlier work; remark: listed apart in the source
# [7] = Meng et al. 2013, cited from earlier work
# patients = conditions: The Merck Index; cited from earlier work
# [8] = after the consumption of asparagus; cited from earlier work
# mice = conditions: The Merck Index; cited from earlier work
molecule,measurement,setting,value
O=C1/C(=C2\Nc3ccc(S(=O)(=O)[O-])cc3C2=O)Nc2ccc(S(=O)(=O)[O-])cc21.[Na+].[Na+] [Indigo carmine],Emission colour of dye identified as suitable,[1],blue emission
same,Solubility in water,[2],1.0 g per 100 mL of water
same,"LD50 (rat, oral)","rat; rat, oral, Baker MSDS sheet",oral) = 2 g/kg (Baker
same,pH indicator-blue at pH,[3],pH indicator-blue at pH < 11
CC(C)c1cccc(C(C)C)c1O [propofol],Side-effect of turning urine a color,[4],green colored urine
CC[C@H](C)C(=O)O[C@H]1C[C@H](O)C=C2C=C[C@H](C)[C@H](CC[C@@H](O)C[C@@H](O)CC(=O)O)[C@H]21 [pravastatin],Side-effect of turning urine a color,[4],blue green
Cc1cc2nc3c(=O)[nH]c(=O)nc-3n(C)c2cc1C [Lumiflavine],Urine color produced,[4],blue-green urine
same,Colour / fluorescence (Chemical Properties),[5],Green fluorescence
same,Toxicology (in words),[6],None
same,"Solubility (in words, solvent not stated)",[2],poor solubility
same,Solubility in water (in words),[2]; water,Very sparingly soluble in
Cc1cc2nc3[nH]c(=O)[nH]c(=O)c3nc2cc1C [Lumichrome],Urine color produced,[4],blue-green urine
same,Colour / fluorescence (Chemical Properties),[5],Blue fluorescence
same,Toxicology (in words),[6],None
same,"Solubility (in words, solvent not stated)",[2],poor solubility
same,Solubility in hot water (in words),[2]; hot water,Sparingly soluble in hot water
"Cc1cc2nc3c(=O)[nH]c(=O)nc-3n(C[C@H](O)[C@H](O)[C@H](O)CO)c2cc1C [B vitamins (e.g. Riboflavin), Riboflavin]",Solubility,[2]; water,Solubility: 1 g in 3 L g in 3 L water
CCC(=O)O[C@@H](O[P@](=O)(CCCCc1ccccc1)CC(=O)N1C[C@H](C2CCCCC2)C[C@H]1C(=O)O)C(C)C [fosinopril],Side-effect of turning urine a color,[4],blue green
O=C(O)c1cc(O)c2c(c1)[C@@H]([C@H]1c3cc(C(=O)O)cc(O)c3C(=O)c3c(O[C@@H]4O[C@H](CO)[C@@H](O)[C@H](O)[C@H]4O)cccc31)c1cccc(O[C@@H]3O[C@H](CO)[C@@H](O)[C@H](O)[C@H]3O)c1C2=O [Sennoside B],Solubility in water compared with Sennoside A,"[2]; water, Merck",Sennoside B is more
CCN(Cc1cccc(S(=O)(=O)O)c1)c1ccc(C(=C2C=CC(=[N+](CC)Cc3cccc(S(=O)(=O)O)c3)C=C2)c2ccc(O)cc2S(=O)(=O)[O-])cc1 [Fast Green FCF],Emission colour of dye identified as suitable,[1],green emission
same,Toxicology (in words),[6],may cause eye injury
same,Solubility in alcohols (in words),[2]; alcohols,"Very soluble in water,"
same,Solubility in other organic solvents (in words),[2]; other organic solvents,"alcohols, insoluble in other"
same,Solubility in water (in words),[2]; water,"Very soluble in water,"
same,LD50 (rat),"rat; rat, in vivo",LD50 (rat) > 2 g/kg;
CN(C)c1ccc2nc3ccc(N(C)C)cc3[s+]c2c1.[Cl-] [methylene blue],Urine color produced,[4],blue-green discoloration of their urine; also recorded: blue-green color
same,Conversion on passage through the gastrointestinal tract,[7]; gastrointestinal tract,reduced to leukomethylene blue
"COc1ccccc1OCC(O)COC(N)=O (stereo not drawn) [Methocarbamol, reference compound]",Toxicology: tolerability in patients,patients,Generally well-
same,Water soluble,[2]; @ 20 ° C.,Water soluble 2.5 g/ g/100 mL
Betalain [Betalain (including betanin)],Colour / fluorescence (Chemical Properties),[5],Colored Red
COc1ccc2[nH]c([S+]([O-])Cc3ncc(C)c(OC)c3C)nc2c1 (stereo not drawn) [Omeprazole],Side-effect of turning urine a color,[4],blue green
O=C(O)C1CSSC1 [Asparagusic Acid],Urine odor,[8],characteristic odor to urine
O=C(O)c1cc(O)c2c(c1)[C@H]([C@H]1c3cc(C(=O)O)cc(O)c3C(=O)c3c(O[C@@H]4O[C@H](CO)[C@@H](O)[C@H](O)[C@H]4O)cccc31)c1cccc(O[C@@H]3O[C@H](CO)[C@@H](O)[C@H](O)[C@H]3O)c1C2=O [Sennoside A],Solubility in water (in words),[2]; water,insoluble in water.
CN(C)c1ccc2c(c1)Sc1cc(N(C)C)ccc1N2 [Leukomethylene blue],Excretion in urine,[7]; urine,excreted mostly unaltered
"Nc1nc(N)c2nc(-c3ccccc3)c(N)nc2n1 [Triamterene, reference compound]",Emission colour of dye identified as suitable,[1],blue emission
same,Toxicology: tolerability in patients,patients,Generally well-
same,Solubility in water,[2],1 part soluble in 1000 part soluble in 1000 parts water
Nc1ccc(/N=N/c2ccccc2)c(N)n1 [phenazopyridine],Side-effect of turning urine a color,[4],red
CO[C@H]1/C=C/O[C@@]2(C)Oc3c(C)c(O)c4c(O)c(c(/C=N/N5CCN(C)CC5)c(O)c4c3C2=O)NC(=O)/C(C)=C\C=C\[C@H](C)[C@H](O)[C@@H](C)[C@@H](O)[C@@H](C)[C@H](OC(C)=O)[C@@H]1C [rifampin],Side-effect of turning urine a color,[4],red
COc1cccc2c1C(=O)c1c(O)c3c(c(O)c1C2=O)C[C@@](O)(C(C)=O)C[C@@H]3O[C@H]1C[C@H](N)[C@H](O)[C@H](C)O1 [Daunorubicin],Side-effect of turning urine a color,[4],red
"CN(C)CCC=C1c2ccccc2CCc2ccccc21 [Amitriptyline Hydrochloride, reference compound]",LD50 (mice),mice,350 mg/kg
same,Solubility in chloroform (in words),"[2]; chloroform, salt",Salt is freely soluble
same,Solubility in water (in words),[2]; water,Salt is freely soluble
same,LD50 (rats),"rat; rats, The Merck Index",380 mg/kg
O=C(O)C1=C/C(=C/C=[N+]2/c3cc(O)c(OC4OC(CO)[C@@H](O)C(O)C4O)cc3CC2C(=O)[O-])CC(C(=O)O)N1 (stereo in doubt) [betanin],Emission colour of dye identified as suitable,[1],red emission
